Test results: patent publication US9833444B2 (priority 2013, dated 2017)
Read-outs that look alike come from different tables or passages of the source.

Tests used:
[1] = target: recombinant toxin sphingomyelinase D (SMase D) (Loxosceles laeta, UniProt Q8I914); experiment: biochemical; conditions: for inhibition at 40 µM: read-out: inhibition of the hydrolytic activity of recombinant toxin on the SM substrate
[2] = test system: venom of Loxosceles laeta; type: biochemical; conditions: for inhibition of the hydrolytic activity of the venom of L. laeta on the SM substrate: 40 µM
human red blood cells [3] = type: cell-based
human red blood cells [4] = type: cell-based; remark: listed apart in the source
human keratinocytes [5] = type: cell-based; conditions: compound 40 μM; flow cytometry
MMP-2 = type: cell-based, human
MMP-9 = type: cell-based, human
[6] = test system: dermonecrotic lesions developed in rabbits; type: in vivo; conditions: for histopathological analysis of the skin of rabbits inoculated with the venom: rabbit, in vivo; for reduction of dermonecrotic injury, 24 hours after venom inoculation / inhibition of dermonecrotic injury, 48 hours / inhibition of dermonecrotic injury, 72 hours: rabbits; for reduction of dermonecrotic injury, 24 hours after venom inoculation: compound at three times IC50 (136.2 μM compound 5, 190.2 μM compound 6); for inhibition of dermonecrotic injury, 48 hours / inhibition of dermonecrotic injury, 72 hours: compound at three times IC50
ERK1/2 = experiment: Activation of MAPK ERK1/2 signaling pathway in keratinocytes induced by recombinant SMases D, ELISA; type: cell-based, human; conditions: compound 40 μM
human keratinocytes [7] = experiment: cells; type: cell-based; conditions: Keratinocyte, read-out: inhibition of superoxide production
TNF receptor = type: cell-based, human
TNF-α = type: cell-based, human
TGF-β1 = type: cell-based, human
[8] = Average inhibition of all activities tested (overall efficiency); conditions: average over all aspects analyzed
From the text: Thus, taking into consideration all the aspects analyzed, compound 5 of the present invention is 61.1% efficient, while compound 6 of this invention is 54.1% efficient in relation to the mechanisms involved in the toxicity of SMases D in the development of loxoscelism.

[9] = target: PLD of C. pseudotuberculosis (Corynebacterium pseudotuberculosis, UniProt P20626); type: biochemical
[10] = target: SMases of Stahylococcus aureus (Staphylococcus aureus, UniProt P09978); experiment: Hydrolytic activity of SMase of Staphylococcus aureus on sphingomyelin; type: biochemical; conditions: compound 40 μM
human keratinocytes [11] = experiment: cells; conditions: Keratinocyte
[12] = read-out: viability of human keratinocytes treated with recombinant toxin
[13] = read-out: viability of human keratinocytes treated with venom of L. laeta

Sequence of recombinant toxin sphingomyelinase D (SMase D) (Q8I914 27-311 limits assumed): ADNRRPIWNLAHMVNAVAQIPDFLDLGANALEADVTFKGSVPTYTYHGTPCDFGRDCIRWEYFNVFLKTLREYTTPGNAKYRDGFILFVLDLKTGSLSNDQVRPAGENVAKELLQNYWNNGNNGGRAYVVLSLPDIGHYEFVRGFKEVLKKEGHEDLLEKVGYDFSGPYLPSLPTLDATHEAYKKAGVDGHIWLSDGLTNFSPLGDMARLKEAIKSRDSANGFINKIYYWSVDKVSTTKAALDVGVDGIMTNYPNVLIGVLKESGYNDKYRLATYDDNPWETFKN
Sequence of PLD of C. pseudotuberculosis (P20626 25-307 limits assumed): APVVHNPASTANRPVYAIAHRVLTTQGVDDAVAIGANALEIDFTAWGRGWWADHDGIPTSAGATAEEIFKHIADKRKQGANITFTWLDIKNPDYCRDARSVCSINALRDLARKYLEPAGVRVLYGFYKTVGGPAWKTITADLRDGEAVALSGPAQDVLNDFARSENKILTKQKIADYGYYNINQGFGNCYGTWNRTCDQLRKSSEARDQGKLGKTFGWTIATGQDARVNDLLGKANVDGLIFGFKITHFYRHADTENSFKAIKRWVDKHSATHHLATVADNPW
Sequence of SMases of Stahylococcus aureus (P09978 35-330 limits assumed): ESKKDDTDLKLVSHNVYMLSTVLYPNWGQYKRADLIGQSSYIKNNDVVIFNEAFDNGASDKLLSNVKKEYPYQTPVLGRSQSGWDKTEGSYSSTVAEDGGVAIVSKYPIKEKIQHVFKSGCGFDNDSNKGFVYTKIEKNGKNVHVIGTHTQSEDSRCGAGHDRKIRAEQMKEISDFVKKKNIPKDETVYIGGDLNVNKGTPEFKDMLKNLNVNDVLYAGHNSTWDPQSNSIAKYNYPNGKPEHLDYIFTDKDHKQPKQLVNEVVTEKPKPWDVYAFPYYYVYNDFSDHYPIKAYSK

Row | SMILES | IC50 [1] | inhibition mechanism [1] | reduction of the hydrolytic activity of recombinant toxin on substrate LPC [1] | inhibition at 40 µM [1] | reduction of the hydrolytic activity of the venom on substrate LPC [2] | inhibition of the hydrolytic activity of the venom of L. laeta on the SM substrate [2] | reduction of removal of glycophorin C from the surface of human red blood cells (human red blood cells [3]) | reduction of binding of the toxin to the red blood cell surface (human red blood cells [4]) | reduction of binding of SMases present in venom to the surface of human keratinocytes (human keratinocytes [5]) | reduction of binding of recombinant toxin to the surface of human keratinocytes (human keratinocytes [5]) | reduction of MMP-2 secretion (MMP-2) | inhibition of MMP-9 secretion (MMP-9) | histopathological analysis of the skin of rabbits inoculated with the venom [6] | reduction of dermonecrotic injury, 24 hours after venom inoculation [6] | inhibition of dermonecrotic injury, 48 hours [6] | inhibition of dermonecrotic injury, 72 hours [6] | reduction of phosphorylated ERK1/2 (ERK1/2) | inhibition at 40 µM (human keratinocytes [7]) | reduction of TNF-α production (TNF-α) | reduction of TGF-β1 production (TGF-β1) | also measured
1 | Cc1[nH]c2ccccc2c1/C=N/NS(=O)(=O)c1ccc(Br)cc1 [Compound 5, 4-bromo-N-[(E)-(2-methyl-1H-indol-3-yl)methyleneamino]benzenosulfonamide] | 45.4 ± 1.2 µM | uncompetitive action inhibitors | 38.6% | 45.7% | 44.4% | 53% | 92.6% | 96.8% | 63.8% | 54.9% | 81% | completely inhibit | reduction in the disorganization of the collagen fibers in the dermis, absence of hemorrhage and inflammatory infiltrate | 61.8% | 60% | 56% | 65.8% | 70.7% | 73.9% | 88.3% | reversal of toxin-induced removal of the TNF receptor from the cell surface (TNF receptor): 27.7%; efficiency in relation to the mechanisms involved in the toxicity of SMases D (average inhibition of all activities tested) [8]: 61.1%; reduction of PLD activity of C. pseudotuberculosis on sphingomyelin [9]: about 70%; reduction of hydrolytic activity of SMase of Staphylococcus aureus [10]: efficiently reduced; viability at 10 µM (human keratinocytes [11]; [12]): 55.8%; viability at 10 µM (human keratinocytes [11]; [13]): 45.9%
2 | Cc1cc(OS(=O)(=O)c2ccc(Cl)cc2)cc2c1C(=O)C(=Cc1cccnc1)O2 [Compound 6, 4-methyl-3-oxo-2-(3-pyridylmethylene)benzo[3,4-b]furan-6-yl-4-chlorobenzenesulphonate] | 63.4 ± 1.1 µM | uncompetitive action inhibitors | 34% | 51% | 16% | 22.7% | 88.2% | 84% | 25.6% | 50.77% | 98.4% | completely inhibit | reduction in the disorganization of the collagen fibers in the dermis, absence of hemorrhage and inflammatory infiltrate | 36% | 45% | 49% | 80.2% | 92.7% | 61.1% | 89.2% | efficiency in relation to the mechanisms involved in the toxicity of SMases D (average inhibition of all activities tested) [8]: 54.1%; reduction of PLD activity of C. pseudotuberculosis on sphingomyelin [9]: about 68%; reduction of hydrolytic activity of SMase of Staphylococcus aureus [10]: efficiently reduced; viability at 10 µM (human keratinocytes [11]; [12]): 53.5%; viability at 10 µM (human keratinocytes [11]; [13]): 59.3%
